Reference: US20250352543A1, “NANOCRYSTALLINE PREPARATION OF ROCK2 INHIBITOR AND PREPARATION METHOD THEREFOR” (BEIJING TIDE PHARMACEUTICAL CO., LTD., priority 2021, published 2025)

Assay: Solubility of the API
Assay type: physicochemical
Conditions: water and a buffer salt solution with pH 1.0-pH 6.8

In the case of `Cn1c(C(=O)N2CC(F)(F)C2)cc2ccc(-c3nccc(Nc4ccc(-c5cn[nH]c5)cc4)n3)cc21` [compound of formula (IV), [6-[4-[[4-(1H-pyrazol-4-yl)phenyl]amino]pyrimidin-2-yl]-1-methyl-1H-indole-2-yl](3,3-difluoroazetidin-1-yl)methanone], the Solubility is reported as “insoluble”.
